These cell lines were tested with C[C@@H](C(=O)N[C@@H](C1CCCCC1)C(=O)N2CCC[C@H]2C(=O)N[C@@H]3[C@@H](CC4=CC=CC=C34)OCC#CC#CCO[C@@H]5CC6=CC=CC=C6[C@@H]5NC(=O)[C@@H]7CCCN7C(=O)[C@H](C8CCCCC8)NC(=O)[C@H](C)NC)NC [AZD5582] + CC(=O)Nc1cccc(-n2c(=O)n(C3CC3)c(=O)c3c(Nc4ccc(I)cc4F)n(C)c(=O)c(C)c32)c1 [Trametinib] (partner 0.02 µM) (assay: relative viability (nuclei count vs DMSO), 5 days (fraction); higher = more cells survive). Conditions: first compound 0.001581 µM.
Procedure, shortened: (§1)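 Lung cancer cell lines, seeded in 1536-well plates, were treated the following day by pin tool with a single drug or with five library-drug doses (not always all listed) in √10 steps on top of a fixed anchor-drug dose. Cells were fixed and nuclei stained in one step after 5 days, and nuclei were counted. Relative viability is the nuclei count for treated wells divided by that for vehicle wells, reported as medians of duplicate plates.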

Cell Line | relative viability
NCI-H1793 | 0.464
NCI-H1944 | 0.36
NCI-H2170 | 0.904
NCI-H2228 | 0.529
NCI-H2342 | 0.792
SK-MES-1 | 0.675
SW 900 | 0.634

Same assay, conditions: first compound 0.005 µM

Cell Line | relative viability
201T | 0.842
A-427 | 0.608
BEN | 1.13
CAL-12T | 0.34
COR-L23 | 0.75
COR-L 105 | 0.517
ChaGo-K-1 | 0.883
EKVX | 0.405
EMC-BAC-2 | 0.841
H3255 | 0.667
HARA | 0.719
HCC-15 | 0.39
HCC-44 | 0.967
HCC-78 | 0.813
HCC-366 | 0.339
HCC-827 | 0.611
HOP-62 | 0.456
LC-2-ad | 1.04

Cell Line | relative viability
LCLC-97TM1 | 0.25
LCLC-103H | 0.813
LK-2 | 0.81
LOU-NH91 | 0.767
LU99A | 0.68
LXF-289 | 0.647
NCI-H358 | 0.157
NCI-H522 | 0.777
NCI-H1395 | 1.22
NCI-H1648 | 0.511
NCI-H1793 | 0.536
NCI-H1944 | 0.487
NCI-H2170 | 0.825
NCI-H2228 | 0.434
NCI-H2342 | 0.922
SK-MES-1 | 0.949
SW 900 | 0.865

Same assay, conditions: first compound 0.01581 µM

Cell Line | relative viability
201T | 0.719
A-427 | 0.71
BEN | 1.05
CAL-12T | 0.291
COR-L23 | 0.584
COR-L 105 | 0.427
ChaGo-K-1 | 0.886
EKVX | 0.289
EMC-BAC-2 | 0.737
EPLC-272H | 0.292
H3255 | 0.557
HARA | 0.747
HCC-15 | 0.332
HCC-44 | 1.02
HCC-78 | 0.712
HCC-366 | 0.413
HCC-827 | 0.515

Cell Line | relative viability
HOP-62 | 0.418
LC-2-ad | 0.942
LCLC-97TM1 | 0.184
LCLC-103H | 0.643
LK-2 | 0.731
LOU-NH91 | 0.781
LU99A | 0.534
LXF-289 | 0.654
NCI-H358 | 0.142
NCI-H522 | 0.724
NCI-H1793 | 0.463
NCI-H1944 | 0.406
NCI-H2170 | 0.861
NCI-H2228 | 0.714
NCI-H2342 | 0.693
SK-MES-1 | 0.542
SW 900 | 0.758

Same assay, conditions: first compound 0.05 µM

Cell Line | relative viability
201T | 0.847
A-427 | 0.566
BEN | 1.2
CAL-12T | 0.216
COR-L23 | 0.523
COR-L 105 | 0.539
ChaGo-K-1 | 0.936
EKVX | 0.376
EMC-BAC-2 | 0.797
EPLC-272H | 0.0966
H3255 | 0.524
HARA | 0.976
HCC-15 | 0.365
HCC-44 | 0.878
HCC-78 | 0.534
HCC-366 | 0.458
HCC-827 | 0.589
HOP-62 | 0.446

Cell Line | relative viability
LC-2-ad | 1.04
LCLC-97TM1 | 0.189
LCLC-103H | 0.828
LK-2 | 1.04
LOU-NH91 | 0.808
LU99A | 0.617
LXF-289 | 0.726
NCI-H358 | 0.147
NCI-H522 | 0.747
NCI-H1395 | 1.28
NCI-H1648 | 0.412
NCI-H1793 | 0.557
NCI-H1944 | 0.485
NCI-H2170 | 1.03
NCI-H2228 | 0.161
NCI-H2342 | 0.932
SK-MES-1 | 1
SW 900 | 0.615

What follows are cell lines tested with Cn1nnc2c(C(N)=O)ncn2c1=O [Temozolomide] + C[C@@H](Oc1cc(-c2cnn(C3CCNCC3)c2)cnc1N)c1c(Cl)ccc(F)c1Cl [Crizotinib] (partner 1 µM) in the same assay as above. Conditions: first compound 0.2 µM.
Procedure, shortened: as §1

Cell Line | relative viability
201T | 1.02
A549 | 0.809
A-427 | 0.927
ABC-1 | 1.11
BEN | 0.649
CAL-12T | 0.93
COR-L23 | 0.925
COR-L 105 | 0.739
Calu-6 | 0.997
ChaGo-K-1 | 1.3
EBC-1 | 0.167
EKVX | 0.357
EMC-BAC-2 | 0.842
EPLC-272H | 0.851
HARA | 1.04
HCC-15 | 0.872
HCC-44 | 0.786
HCC-78 | 0.293

Cell Line | relative viability
HCC-366 | 0.519
HCC-827 | 0.992
HOP-62 | 1.12
IA-LM | 1.27
LC-2-ad | 0.455
LCLC-97TM1 | 0.344
LCLC-103H | 1.03
LK-2 | 0.26
LOU-NH91 | 0.557
LU99A | 0.592
LXF-289 | 0.825
NCI-H358 | 0.785
NCI-H1299 | 1.02
NCI-H1563 | 0.911
NCI-H1944 | 0.817
NCI-H2228 | 0.529
SK-MES-1 | 1.14

Source: the supplement of paper PMC10307832
